Series [1] deals with serum cholesterol concentration. More on the design: method as in ref 21 = [21]; 21 (a) Sparatore F , Boido V , Fanelli F. Dialkylaminoalkylbenzimi-dazoles of pharmacological interest . Farmaco Sci 1968; 23 : 344 – 59 . (b) Paglietti G , Sparatore F. Dialkylaminoalkyl-benzimidazo. The note with it: hypercholesterolemic mice, 50 mg/kg p.os; cited from earlier work.
For a further series, the system named is L. tropica promastigotes. Put plainly: Antileishmanial activity on L. tropica promastigotes (MTT). Format: cell-based, Leishmania tropica. The following applies: for IC50: Leishmania tropica; for IC50 amph. B ×100/IC50 compd., L. tropica: percent of amphotericin B potency, calculated for each experiment.
Series [2] deals with L. infantum promastigotes. Put plainly: Antileishmanial activity on L. infantum promastigotes (MTT). Format: cell-based, Leishmania infantum. The note with it: for IC50: Leishmania infantum; for IC50 amph. B ×100/IC50 compd., L. infantum: percent of amphotericin B potency, calculated for each experiment.
The test system of series [3] is human microvascular endothelial cell line (HMEC-1). Put plainly: Cytotoxicity on HMEC-1 cells (MTT). Type of series: cell-based. The note with it: for IC50: Homo sapiens, cytotoxicity, HMEC-1 cells, MTT.
The subject of another series is L. major (promastigotes). The arrangement: method as in PMID 20430484, PMID 15183913, PMID 18486471. The note with it: Figure 3; cited from earlier work.
Series [4] deals with intramacrophagic amastigote stage of L. infantum. Put plainly: In vitro intracellular amastigote susceptibility assay in THP-1 macrophages. Format: cell-based, Leishmania infantum. As for the experimental part: (b) In vitro intracellular amastigote susceptibility assays. […] Cell monolayers were then washed and incubated with compounds for 72 h. Slides were fixed with methanol and stained with Giemsa. The percentage of infected macrophages in treated and non-treated cells was determined by light microscopy.

Series [5] deals with 24 human cancer cell lines. More on the design: method as in ref 25b = [25]; 25 (a) Novelli F , Tasso B , Sparatore F. Synthesis and biological investigations of 2-(tetrahydropyran-2'-yl) and 2-(tetrahydrofuran-2'-yl)benzimidazoles . Farmaco 1997; 52 : 499 – 507 . (b) Tonelli. The note with it: ref 25b; read-out: GI50 against 24 human cancer cell lines; cited from earlier work.

Series [6] concerns renal cancer cell line UO31. More on the design: method as in ref 25b = [25]; 25 (a) Novelli F , Tasso B , Sparatore F. Synthesis and biological investigations of 2-(tetrahydropyran-2'-yl) and 2-(tetrahydrofuran-2'-yl)benzimidazoles . Farmaco 1997; 52 : 499 – 507 . (b) Tonelli. The following applies: ref 25b; cited from earlier work.
Series [7] has as its system Coxsackie virus B5 (CVB-5). The arrangement: method as in ref 24c = [24]; 24 (a) Tonelli M , Paglietti G , Boido V , et al Antiviral activity of benzimidazole derivatives. I. Antiviral activity of 1-substituted-2-[(benzotriazol-1/2-yl)methyl]benzimidazoles . Chem Biodivers. The following applies: ref 24c; cited from earlier work.
Series [8] concerns respiratory syncytial virus (RSV). More on the design: method as in ref 24c = [24]; 24 (a) Tonelli M , Paglietti G , Boido V , et al Antiviral activity of benzimidazole derivatives. I. Antiviral activity of 1-substituted-2-[(benzotriazol-1/2-yl)methyl]benzimidazoles . Chem Biodivers. The note with it: ref 24c; cited from earlier work.
The next series in a line: in vitro. The following applies: monkey.
Series [9] deals with L. mexicana (promastigotes). The arrangement: method as in PMID 20430484, PMID 15183913, PMID 18486471. The note with it: Figure 3; cited from earlier work.
Series [10] concerns L. donovani (promastigotes). More on the design: method as in PMID 20430484, PMID 15183913, PMID 18486471. The note with it: Figure 3; cited from earlier work.
Series [11] deals with L. mexicana (amastigotes). The arrangement: method as in PMID 20430484, PMID 15183913, PMID 18486471. The note with it: Figure 3; cited from earlier work.
The mark [12] stands for this setting: 72 h, promastigotes, MTT, 72 h, starred values mean of two experiments, read-out: IC50 (µM) L. tropica.
Setting [13] is: promastigotes, MTT, 72 h, read-out: IC50 (µM) L. infantum.

Values joined by “and” are separate entries in the source; they are usually repeats but may differ in a detail not shown here. Identical values can stand only once. Like-named read-outs stand apart in the source and are kept apart here.

The term IC50 denotes the midpoint of a concentration-inhibition curve. For orientation: GI50 means the concentration giving 50% growth inhibition. Broadly, the EC50 is the midpoint of the concentration-response curve.

As to `CCN(CC)CCCn1c(Cc2ccc(Cl)cc2)nc2cc(C(F)(F)F)ccc21` [2-(4-chlorobenzyl)-1-(3-diethylaminopropyl)-5-trifluoromethylbenzimidazole], the “Reduction of serum cholesterol concentration” value in [1] was more than 15%.
As for `C[C@@H]1[C@H](O)[C@@H](C)/C=C/C=C/C=C/C=C/C=C/C=C/C=C/[C@H](O[C@@H]2O[C@H](C)[C@@H](O)[C@H](N)[C@@H]2O)C[C@@H]2O[C@](O)(C[C@@H](O)C[C@@H](O)[C@H](O)CC[C@@H](O)C[C@@H](O)CC(=O)O[C@H]1C)C[C@H](O)[C@H]2C(=O)O` [Amph. B, amphotericin B, reference compound], the IC50 with L. tropica promastigotes (setting [12]) is 0.113 ± 0.03 µM; in the series on L. tropica promastigotes (range of values across experiments, read-out: IC50 range over many different experiments, L. tropica) it was 0.082 to 0.177 µM; in series [2] (setting [13]), 0.135 ± 0.03 µM; in series [2] (range of values across experiments, read-out: IC50 range over many different experiments, L. infantum), 0.094 to 0.209 µM; in [3], 25.7 ± 1.9 µM; with L. major (promastigotes), 610 nM. For the same compound, the “IC50 amph. B ×100/IC50 compd., L. tropica” value in the series with L. tropica promastigotes is reported as 100. In series [2], the “IC50 amph. B ×100/IC50 compd., L. infantum” value is 100. In addition, the “SI L. infantum (IC50 HMEC-1/IC50 L. infantum)” value in series [3] (selectivity index, HMEC-1) was 190.4. For the same compound, in series [3] (selectivity index, HMEC-1), the “SI L. tropica (IC50 HMEC-1/IC50 L. tropica)” value was 227.4.
In the case of `FC(F)(F)c1ccc2c(c1)nc(Cc1ccc(Cl)cc1)n2C[C@@H]1CCCN2CCCC[C@H]12` [Compound 28, 2-(4-chlorobenzyl)-1-lupinyl-5-trifluoromethylbenzimidazole], the IC50 in the series on L. tropica promastigotes (setting [12]) was 3.7 ± 1.19 µM; in [2] (setting [13]), 4.76 ± 1.6 µM; in [3], 16.9 µM; in series [4] (Leishmania infantum, THP-1 macrophages, 72 h, read-out: IC50 against intramacrophagic amastigote stage of L. infantum), more than 2000 nM; in the series “in vitro”, more than 100 µM. The “IC50 amph. B ×100/IC50 compd., L. tropica” value in the series on L. tropica promastigotes is reported as 4.8. Also, in series [2], the “IC50 amph. B ×100/IC50 compd., L. infantum” value is listed as 4.4. Further, the “Reduction of the amastigote infection of THP-1 cells” value in [4] (2 μM concentration) came to 33.2%. In addition, the GI50 in series [5] is less than 5 µM; in series [6] it was 19 nM. Further, the EC50 in [7] is 13 µM; in [8] it was 15 µM.
For the compound `N=C(N)c1ccc(OCCCCCOc2ccc(C(=N)N)cc2)cc1` [pentamidine], the IC50 was 2420 nM in series [9]; 2200 nM and 2870 nM in [10]; 9.57 µM in [11].

These data come from article PMC7011974, “Benzimidazole derivatives endowed with potent antileishmanial activity” (Journal of Enzyme Inhibition and Medicinal Chemistry, 2017).
